# In patent US20160122342A1, “ENHANCER OF ZESTE HOMOLOG 2 INHIBITORS” (GLAXOSMITHKLINE INTELLECTUAL PROPERTY (NO.2) LIMITED, priority 2013, published 2016):
# Counter-ions that a name gives are not always drawn.
# Target: T1, EZH2 within the PRC2 complex (Homo sapiens, UniProt Q15910)
# T1 construct: FLAG; made in house; host or cells: Sf9 cells
# Assay: Assay Protocol 1: EZH2 methyltransferase scintillation proximity assay, mononucleosome substrate
# Type: biochemical
# Conditions: not given
# Experimental: Compounds contained herein were evaluated for their ability to inhibit the methyltransferase activity of EZH2 within the PRC2 complex. […] Mononucleosomes were captured on SPA beads and the resulting signal is read on a ViewLux plate reader. • 1. Prepare 10 mM stock of compounds from solid in 100% DMSO. • 2. […] Dispense 100 nL of compound from the dilution plate into reaction plates (Grenier Bio-One, 384-well, Cat#784075). Prepare the following solutions: • 1. 50 mM Tris-HCl, pH 8: Per 1 L of base buffer, combine 1 M Tris-HCl, pH 8 (50 mL) and distilled water (950 mL). • 2. 1× Assay Buffer: […] SPA Bead Suspension: […] Per 10 mL of 2× Substrate Solution, combine 1× Assay Buffer (9728.55 uL), 800 ug/mL mononucleosomes (125 uL), 1 mM cold SAM (4 uL), and 7.02 uM 3H-SAM (142.45 uL; 0.55 mCi/mL) to provide a final concentration of 5 ug/mL nucleosomes, 0.2 uM cold SAM, and 0.05 uM 3H-SAM. • 6. 2.67× Quench/Bead Mixture: Per 10 mL of 2.67× Quench/Bead Mixture, combine ddH2O (9358 uL), 10 mM cold SAM (267 uL), 40 mg/mL Bead Suspension (375 uL) to provide a final concentration of 100 uM cold SAM and 0.5 mg/mL SPA beads. • 1. Dispense 100 nL/well of 100× Compound to test wells (as noted above). • 2. […] • 1. Dispense 5 uL/well of 1× Assay Buffer to column 18 (low control reactions). • 2. Dispense 5 uL/well of 2× Enzyme Solution to columns 1-17, 19-24. • 3. Spin assay plates for ˜1 minute at 500 rpm. • 4. Stack the assay plates, covering the top plate. • 5. Incubate the compound/DMSO with the enzyme for 30 minutes at room temperature. • 6. Dispense 5 uL/well of 2× Substrate Solution to columns 1-24. • 7. Spin assay plates for ˜1 minute at 500 rpm. • 8. Stack the assay plates, covering the top plate. • 9. Incubate the assay plates at room temperature for 1 hour. • 1. Dispense 5 uL/well of the 3× Quench/Bead Mixture to columns 1-24. • 2. Seal the top of each assay plate with adhesive TopSeal. • 3. Spin assay plates for ˜1 minute at 500 rpm. • 4. […] • 1. Read the assay plates on the Viewlux Plate Reader utilizing the 613 nm emission filter with a 300 s read time. Reagent addition can be done manually or with automated liquid handler. The final DMSO concentration in this assay is 1%. The positive control is in column 6; negative control is in column 18. Final starting concentration of compounds is 100 μM. Percent inhibition was calculated relative to the DMSO control for each compound concentration and the resulting values were fit using standard IC50 fitting parameters within the ABASE data fitting software package.
# T1 sequence (Q15910 whole entry): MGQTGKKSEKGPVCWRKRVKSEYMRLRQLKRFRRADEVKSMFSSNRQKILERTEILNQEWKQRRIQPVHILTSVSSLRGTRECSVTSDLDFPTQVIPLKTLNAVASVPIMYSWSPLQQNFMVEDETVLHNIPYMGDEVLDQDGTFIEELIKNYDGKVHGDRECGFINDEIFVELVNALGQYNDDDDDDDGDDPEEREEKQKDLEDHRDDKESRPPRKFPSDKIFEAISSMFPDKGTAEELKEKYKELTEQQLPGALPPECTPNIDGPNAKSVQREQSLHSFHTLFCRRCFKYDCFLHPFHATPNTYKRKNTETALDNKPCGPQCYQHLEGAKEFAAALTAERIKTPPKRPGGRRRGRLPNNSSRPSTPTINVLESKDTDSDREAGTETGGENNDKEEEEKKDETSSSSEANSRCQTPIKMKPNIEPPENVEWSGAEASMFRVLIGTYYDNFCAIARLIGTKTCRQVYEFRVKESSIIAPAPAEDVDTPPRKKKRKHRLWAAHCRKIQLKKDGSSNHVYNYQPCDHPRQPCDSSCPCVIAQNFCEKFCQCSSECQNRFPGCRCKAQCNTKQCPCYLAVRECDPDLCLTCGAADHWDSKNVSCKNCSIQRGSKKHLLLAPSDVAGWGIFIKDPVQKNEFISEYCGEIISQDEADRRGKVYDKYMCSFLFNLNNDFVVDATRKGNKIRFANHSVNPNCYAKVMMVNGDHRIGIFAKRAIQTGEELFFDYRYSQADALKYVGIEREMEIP
# T1 sequence (O75530 whole entry partner): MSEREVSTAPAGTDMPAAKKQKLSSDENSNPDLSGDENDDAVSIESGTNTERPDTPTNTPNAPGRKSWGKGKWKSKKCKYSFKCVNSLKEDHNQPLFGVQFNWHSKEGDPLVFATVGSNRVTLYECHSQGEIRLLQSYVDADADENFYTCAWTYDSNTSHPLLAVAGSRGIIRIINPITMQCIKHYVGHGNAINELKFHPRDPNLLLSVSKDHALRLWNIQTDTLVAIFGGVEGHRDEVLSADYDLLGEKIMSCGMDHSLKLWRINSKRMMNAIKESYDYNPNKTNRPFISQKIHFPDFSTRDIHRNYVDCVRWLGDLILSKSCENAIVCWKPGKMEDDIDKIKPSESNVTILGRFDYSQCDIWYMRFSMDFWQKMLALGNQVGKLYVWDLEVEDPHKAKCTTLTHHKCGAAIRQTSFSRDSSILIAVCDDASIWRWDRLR
# T1 sequence (Q15022 whole entry partner): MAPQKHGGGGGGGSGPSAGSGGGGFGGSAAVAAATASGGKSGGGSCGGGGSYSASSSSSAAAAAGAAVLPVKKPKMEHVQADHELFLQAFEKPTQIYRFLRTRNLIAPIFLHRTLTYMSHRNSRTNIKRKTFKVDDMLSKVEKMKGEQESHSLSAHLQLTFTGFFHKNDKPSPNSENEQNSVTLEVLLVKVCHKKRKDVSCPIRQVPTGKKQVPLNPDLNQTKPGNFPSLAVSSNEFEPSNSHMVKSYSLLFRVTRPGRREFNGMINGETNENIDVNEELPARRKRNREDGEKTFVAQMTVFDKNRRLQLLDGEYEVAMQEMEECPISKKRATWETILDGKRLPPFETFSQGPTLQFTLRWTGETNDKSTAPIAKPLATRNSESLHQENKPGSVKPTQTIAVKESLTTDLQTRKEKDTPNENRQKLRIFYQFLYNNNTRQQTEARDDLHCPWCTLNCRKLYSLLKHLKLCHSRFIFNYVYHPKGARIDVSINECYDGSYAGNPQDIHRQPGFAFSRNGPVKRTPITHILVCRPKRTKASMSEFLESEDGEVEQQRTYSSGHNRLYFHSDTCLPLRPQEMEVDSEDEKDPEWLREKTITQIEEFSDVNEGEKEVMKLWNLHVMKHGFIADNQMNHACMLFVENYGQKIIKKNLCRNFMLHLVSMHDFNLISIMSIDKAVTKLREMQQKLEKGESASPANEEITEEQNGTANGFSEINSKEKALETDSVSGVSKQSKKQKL
# T1 sequence (Q09028 whole entry partner): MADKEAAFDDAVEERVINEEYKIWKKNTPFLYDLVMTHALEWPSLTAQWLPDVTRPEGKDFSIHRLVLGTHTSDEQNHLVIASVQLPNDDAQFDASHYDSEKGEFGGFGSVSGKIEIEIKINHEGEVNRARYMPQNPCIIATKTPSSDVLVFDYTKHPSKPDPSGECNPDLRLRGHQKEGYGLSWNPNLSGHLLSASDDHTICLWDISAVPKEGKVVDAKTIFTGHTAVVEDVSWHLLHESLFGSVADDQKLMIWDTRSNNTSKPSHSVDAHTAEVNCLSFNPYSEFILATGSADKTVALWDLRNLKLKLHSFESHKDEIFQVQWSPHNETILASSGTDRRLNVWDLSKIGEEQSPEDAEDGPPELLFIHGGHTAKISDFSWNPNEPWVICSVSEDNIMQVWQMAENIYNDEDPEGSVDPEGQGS
# T1 sequence (Q6ZN18 whole entry partner): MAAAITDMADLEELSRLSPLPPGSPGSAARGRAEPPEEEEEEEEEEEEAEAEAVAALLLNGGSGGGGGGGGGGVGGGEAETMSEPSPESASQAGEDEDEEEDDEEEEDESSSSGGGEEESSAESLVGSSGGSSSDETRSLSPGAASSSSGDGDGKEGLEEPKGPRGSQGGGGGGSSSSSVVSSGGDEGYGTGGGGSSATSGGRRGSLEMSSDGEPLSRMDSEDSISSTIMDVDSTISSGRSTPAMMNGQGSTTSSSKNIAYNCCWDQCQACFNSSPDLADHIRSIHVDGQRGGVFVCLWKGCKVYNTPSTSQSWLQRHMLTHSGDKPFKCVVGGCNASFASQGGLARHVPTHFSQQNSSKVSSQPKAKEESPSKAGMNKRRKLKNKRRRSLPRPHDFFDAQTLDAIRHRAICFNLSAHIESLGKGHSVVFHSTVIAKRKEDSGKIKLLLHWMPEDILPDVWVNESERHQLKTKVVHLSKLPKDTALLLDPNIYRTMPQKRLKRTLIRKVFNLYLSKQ
row,Structure (SMILES),IC50
1,"Cc1cc2c(c(=O)[nH]1)CNC(=O)c1cc(Cl)cc(O[C@H]3CC[C@H](N)CC3)c1C/C=C\CC2 [Example 4, (Z)-10-((trans-4-aminocyclohexyl)oxy)-12-chloro-3-methyl-5,6,15,16-tetrahydrobenzo[c]pyrido[4,3-j][1]azacyclododecine-1,14(2H,9H)-dione hydrochloride]",2510 nM

# Same assay, conditions: Assay Protocol 1; SPA, 3H-SAM, Histone H3 of mononucleosome purified from HeLa cells; 5-member PRC2 complex; read-out: EZH2 IC50
row,Structure (SMILES),IC50
1,"Cc1cc2c(c(=O)[nH]1)CNC(=O)c1cc(Cl)cc(O[C@H]3CC[C@H](N(C)C)CC3)c1C/C=C\CC2 [Example 5, (Z)-12-chloro-10-((trans-4-(dimethylamino)cyclohexyl)oxy)-3-methyl-5,6,15,16-tetrahydrobenzo[c]pyrido[4,3-j][1]azacyclododecine-1,14(2H,9H)-dione]",2510 nM
2,"CCN(c1cccc2c1CCCCOCc1cc(C)[nH]c(=O)c1CNC2=O)C1CCOCC1 [Example 11, 11-(ethyl(tetrahydro-2H-pyran-4-yl)amino)-3-methyl-7,8,9,10,16,17-hexahydrobenzo[h]pyrido[4,3-c][1,6]oxaazacyclotridecine-1,15(2H,5H)-dione]",501 nM
3,"COc1cc(Cl)cc2c1C/C=C/CCc1cc(C)[nH]c(=O)c1CNC2=O [Example 15, (E)-12-chloro-10-methoxy-3-methyl-5,6,15,16-tetrahydrobenzo[c]pyrido[4,3-j][1]azacyclododecine-1,14(2H,9H)-dione]",501 nM
4,"CCN(c1cc(Cl)cc2c1C/C=C\CCc1cc(C)[nH]c(=O)c1CNC2=O)C1CCOCC1 [Example 16, (Z)-12-chloro-10-(ethyl(tetrahydro-2H-pyran-4-yl)amino)-3-methyl-5,6,15,16-tetrahydrobenzo[c]pyrido[4,3-j][1]azacyclododecine-1,14(2H,9H)-dione hydrochloride]",501 nM
5,"CCN(c1cccc2c1C/C=C/C(CO)Cc1cc(C)[nH]c(=O)c1CNC2=O)C1CCOCC1 (stereo not shown) [Example 25, (E)-10-(ethyl(tetrahydro-2H-pyran-4-yl)amino)-6-(hydroxymethyl)-3-methyl-5,6,15,16-tetrahydrobenzo[c]pyrido[4,3-j][1]azacyclododecine-1,14(2H,9H)-dione]",158 nM
6,"CCN(c1cccc2c1C/C=C\C(CO)Cc1cc(C)[nH]c(=O)c1CNC2=O)C1CCOCC1 (stereo not shown) [Example 26, (Z)-10-(ethyl(tetrahydro-2H-pyran-4-yl)amino)-6-(hydroxymethyl)-3-methyl-5,6,15,16-tetrahydrobenzo[c]pyrido[4,3-j][1]azacyclododecine-1,14(2H,9H)-dione]",12600 nM
7,"CCN(c1cccc2c1CCCC(CO)Cc1cc(C)[nH]c(=O)c1CNC2=O)C1CCOCC1 (stereo not shown) [Example 27, 10-(ethyl(tetrahydro-2H-pyran-4-yl)amino)-6-(hydroxymethyl)-3-methyl-6,7,8,9,15,16-hexahydrobenzo[c]pyrido[4,3-j][1]azacyclododecine-1,14(2H,5H)-dione]",316 nM
8,"CCN(c1cccc2c1CCCC(O)CCc1cc(C)[nH]c(=O)c1CNC2=O)C1CCOCC1 (stereo not shown) [Example 28, 11-(ethyl(tetrahydro-2H-pyran-4-yl)amino)-7-hydroxy-3-methyl-5,6,7,8,9,10,16,17-octahydro-1H-benzo[c]pyrido[4,3-k][1]azacyclotridecine-1,15(2H)-dione]",631 nM
9,"CCN(c1cccc2c1C/C=C/CCc1cc(C)[nH]c(=O)c1CN(CCO)C2=O)C1CCOCC1 [Example 29, (E)-10-(ethyl(tetrahydro-2H-pyran-4-yl)amino)-15-(2-hydroxyethyl)-3-methyl-5,6,15,16-tetrahydrobenzo[c]pyrido[4,3-j][1]azacyclododecine-1,14(2H,9H)-dione]",1260 nM

# More lines, now with the values ahead:
row,IC50,Structure (SMILES)
1,1590 nM,"CCN(c1cccc2c1C/C=C\CCc1cc(C)[nH]c(=O)c1CNC2=O)C1CCOCC1 [Example 7, (Z)-10-(ethyl(tetrahydro-2H-pyran-4-yl)amino)-3-methyl-5,6,15,16-tetrahydrobenzo[c]pyrido[4,3-j][1]azacyclododecine-1,14(2H,9H)-dione hydrochloride, 0.10 1,4-dioxane solvate]"
2,1000 nM,"CCN(c1cccc2c1C/C=C/CN(C)Cc1cc(C)[nH]c(=O)c1CNC2=O)C1CCOCC1 [Example 10, (E)-11-(ethyl(tetrahydro-2H-pyran-4-yl)amino)-3,6-dimethyl-5,6,7,10,16,17-hexahydro-1H-benzo[h]pyrido[4,3-c][1,6]diazacyclotridecine-1,15(2H)-dione]"
3,794 nM,"CCN(c1cccc2c1C/C=C\COc1cc(C)[nH]c(=O)c1CNC2=O)C1CCOCC1 [Example 13, (Z)-10-(ethyl(tetrahydro-2H-pyran-4-yl)amino)-3-methyl-6,9,15,16-tetrahydro-1H-benzo[g]pyrido[4,3-b][1,5]oxaazacyclododecine-1,14(2H)-dione]"
4,6310 nM,"CCN(c1cccc2c1C/C=C\CC(C)c1cc(C)[nH]c(=O)c1CNC2=O)C1CCOCC1 (stereo not shown) [Example 22, (Z)-10-(ethyl(tetrahydro-2H-pyran-4-yl)amino)-3,5-dimethyl-5,6,15,16-tetrahydrobenzo[c]pyrido[4,3-j][1]azacyclododecine-1,14(2H,9H)-dione]"
5,126 nM,"CCN(c1cccc2c1C/C=C/CC(C)c1cc(C)[nH]c(=O)c1CNC2=O)C1CCOCC1 (stereo not shown) [Example 23, (E)-10-(ethyl(tetrahydro-2H-pyran-4-yl)amino)-3,5-dimethyl-5,6,15,16-tetrahydrobenzo[c]pyrido[4,3-j][1]azacyclododecine-1,14(2H,9H)-dione]"
6,631 nM,"CCN(c1cccc2c1CCCCC(C)c1cc(C)[nH]c(=O)c1CNC2=O)C1CCOCC1 (stereo not shown) [Example 24, 10-(ethyl(tetrahydro-2H-pyran-4-yl)amino)-3,5-dimethyl-6,7,8,9,15,16-hexahydrobenzo[c]pyrido[4,3-j][1]azacyclododecine-1,14(2H,5H)-dione]"
